Results published in PubChem BioAssay (NCI).
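Growth conditions: 96-well plates. Treatment: test compound, 48 hours, 5 concentrations. Analysis: linear interpolation between bracketing concentrations; unreached endpoints set to highest concentration. GI50 marks 50% less growth. TGI is the concentration that stops growth completely.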

Assays:
Test in all cases: NCI anticancer screen, dose series, 48 h; in the data active = GI50 below about 0.43 µM; inactive = the rest
EKVX NSCLC = system: EKVX NSCLC
NCI/ADR-RES ovarian = system: NCI/ADR-RES ovarian
SF-295 CNS = system: SF-295 CNS
MDA-MB-435 = system: MDA-MB-435
SK-MEL-5 melanoma = system: SK-MEL-5 melanoma
HS 578T breast = system: HS 578T breast
IGROV1 ovarian = system: IGROV1 ovarian
OVCAR-8 ovarian = system: OVCAR-8 ovarian
RXF 393 renal = system: RXF 393 renal
NCI-H226 lung = system: NCI-H226 lung
786-0 renal = system: 786-0 renal

Cc1cc(S(=O)(=O)Nc2n[nH]c(Nc3ccccc3)n2)c(SSc2cc(Cl)c(C)cc2S(=O)(=O)Nc2n[nH]c(Nc3ccccc3)n2)cc1Cl
> 10 µM: TGI (RXF 393 renal)
> 100 µM: TGI (EKVX NSCLC) | TGI (NCI/ADR-RES ovarian) | TGI (SF-295 CNS) | TGI (MDA-MB-435) | TGI (SK-MEL-5 melanoma) | TGI (HS 578T breast) | TGI (IGROV1 ovarian) | TGI (OVCAR-8 ovarian)

O=c1onc(Nc2ccccc2)n1-c1ccccc1
> 100 µM: TGI (NCI-H226 lung) | TGI (EKVX NSCLC) | TGI (NCI/ADR-RES ovarian) | TGI (SF-295 CNS) | TGI (SK-MEL-5 melanoma) | TGI (HS 578T breast) | TGI (IGROV1 ovarian) | TGI (786-0 renal) | TGI (OVCAR-8 ovarian) | TGI (RXF 393 renal)

COc1cccc(N(CN2C(=O)CCC2OC)C(C)=O)c1 (stereo unspecified)
> 100 µM: TGI (NCI-H226 lung) | TGI (NCI/ADR-RES ovarian) | TGI (SF-295 CNS) | TGI (MDA-MB-435) | TGI (SK-MEL-5 melanoma) | TGI (HS 578T breast) | TGI (786-0 renal) | TGI (OVCAR-8 ovarian) | TGI (RXF 393 renal)

COC(=O)C(CNC(=O)/C=C/c1ccc(OC(C)=O)c(OC(C)=O)c1)NC(=O)/C=C/c1ccc(OC(C)=O)c(OC(C)=O)c1 (stereo unspecified)
> 100 µM: TGI (NCI-H226 lung) | TGI (EKVX NSCLC) | TGI (SF-295 CNS) | TGI (MDA-MB-435) | TGI (SK-MEL-5 melanoma) | TGI (HS 578T breast) | TGI (IGROV1 ovarian) | TGI (786-0 renal) | TGI (OVCAR-8 ovarian) | TGI (RXF 393 renal)

O=NNc1c[nH]c(=O)[nH]c1=O
> 100 µM: TGI (NCI-H226 lung) | TGI (EKVX NSCLC) | TGI (NCI/ADR-RES ovarian) | TGI (SF-295 CNS) | TGI (MDA-MB-435) | TGI (SK-MEL-5 melanoma) | TGI (IGROV1 ovarian) | TGI (786-0 renal) | TGI (OVCAR-8 ovarian) | TGI (RXF 393 renal)

CCOP(=O)(Cc1nc(C#N)c(N)o1)OCC
> 100 µM: TGI (NCI-H226 lung) | TGI (EKVX NSCLC) | TGI (SF-295 CNS) | TGI (MDA-MB-435) | TGI (SK-MEL-5 melanoma) | TGI (HS 578T breast) | TGI (IGROV1 ovarian) | TGI (786-0 renal) | TGI (RXF 393 renal)

OC(CCl)CN1CC[N+]2(CC1)CC[N+]1(CCN(CC(O)CCl)CC1)CC2 (stereo unspecified)
> 50 µM: TGI (NCI-H226 lung) | TGI (EKVX NSCLC) | TGI (SF-295 CNS) | TGI (SK-MEL-5 melanoma) | TGI (IGROV1 ovarian) | TGI (786-0 renal) | TGI (OVCAR-8 ovarian) | TGI (RXF 393 renal)

C=C1CC(O)C2C(=C)C(=O)OC2C2C(C)C(=O)CC12 (stereo unspecified)
35.6 µM: TGI (EKVX NSCLC)
63.2 µM: TGI (HS 578T breast)
33.1 µM: TGI (MDA-MB-435)
68.9 µM: TGI (SF-295 CNS)
49.7 µM: TGI (NCI/ADR-RES ovarian)
50.9 µM: TGI (OVCAR-8 ovarian)
36.2 µM: TGI (IGROV1 ovarian)
47 µM: TGI (SK-MEL-5 melanoma)
17.4 µM: TGI (RXF 393 renal)

CCCCCCCCCCOc1ccc(N=Nc2nnc(-c3ccc(OCCCCC)cc3)s2)cc1
> 100 µM: TGI (EKVX NSCLC) | TGI (NCI/ADR-RES ovarian) | TGI (SF-295 CNS) | TGI (MDA-MB-435) | TGI (SK-MEL-5 melanoma) | TGI (HS 578T breast) | TGI (IGROV1 ovarian) | TGI (786-0 renal) | TGI (OVCAR-8 ovarian) | TGI (RXF 393 renal)

O=[N+]([O-])c1ccc(Nc2cccc3c2[nH]c2c(-c4ccccc4)nccc23)c([N+](=O)[O-])c1
> 100 µM: TGI (NCI-H226 lung) | TGI (EKVX NSCLC) | TGI (NCI/ADR-RES ovarian) | TGI (SF-295 CNS) | TGI (SK-MEL-5 melanoma) | TGI (IGROV1 ovarian) | TGI (OVCAR-8 ovarian) | TGI (RXF 393 renal)

COc1ccc(C2=NN(c3nsc4ccccc34)C(=O)CC2)cc1
> 100 µM: TGI (EKVX NSCLC) | TGI (SK-MEL-5 melanoma) | TGI (IGROV1 ovarian) | TGI (OVCAR-8 ovarian) | TGI (RXF 393 renal)

CC(C)(C)CC(C)(C)NCC(O)COc1ccc(C(C)(C)c2ccc(OCC(O)CNC(C)(C)CC(C)(C)C)cc2)cc1 (stereo unspecified)
3.23 µM: TGI (IGROV1 ovarian)
1.73 µM: TGI (MDA-MB-435)
3.21 µM: TGI (SF-295 CNS)
3.08 µM: TGI (EKVX NSCLC)
3.25 µM: TGI (OVCAR-8 ovarian)
2.84 µM: TGI (NCI/ADR-RES ovarian)
2.75 µM: TGI (RXF 393 renal)
2.77 µM: TGI (786-0 renal)
3.51 µM: TGI (NCI-H226 lung)
2.67 µM: TGI (SK-MEL-5 melanoma)
inactive: GI50 (NCI/ADR-RES ovarian) 1.41 µM | GI50 (MDA-MB-435) 0.513 µM

CCN(CCC#N)C(=O)Nc1ccccc1
> 100 µM: TGI (NCI-H226 lung) | TGI (EKVX NSCLC) | TGI (NCI/ADR-RES ovarian) | TGI (SF-295 CNS) | TGI (MDA-MB-435) | TGI (SK-MEL-5 melanoma) | TGI (IGROV1 ovarian) | TGI (786-0 renal) | TGI (OVCAR-8 ovarian) | TGI (RXF 393 renal)

Cn1c(-c2c(C3=CC(=O)N(c4ccccc4)C3=O)c3ccccc3n2C)cc2ccccc21
> 100 µM: TGI (NCI-H226 lung) | TGI (EKVX NSCLC) | TGI (NCI/ADR-RES ovarian) | TGI (SF-295 CNS) | TGI (MDA-MB-435) | TGI (SK-MEL-5 melanoma) | TGI (IGROV1 ovarian) | TGI (786-0 renal) | TGI (OVCAR-8 ovarian) | TGI (RXF 393 renal)

NNS(=O)(=O)c1ccc(/C=C2\NC(=O)NC2=O)cc1
> 100 µM: TGI (NCI-H226 lung) | TGI (EKVX NSCLC) | TGI (NCI/ADR-RES ovarian) | TGI (SF-295 CNS) | TGI (MDA-MB-435) | TGI (SK-MEL-5 melanoma) | TGI (HS 578T breast) | TGI (IGROV1 ovarian) | TGI (786-0 renal) | TGI (OVCAR-8 ovarian)

N=C(N)c1ccc(-c2ccc(-c3ccc(Cl)cc3Cl)s2)nc1
4.88 µM: TGI (HS 578T breast)
28.4 µM: TGI (NCI-H226 lung)
inactive: GI50 (NCI-H226 lung) 5.02 µM | GI50 (EKVX NSCLC) 2.47 µM | GI50 (NCI/ADR-RES ovarian) 1.88 µM | GI50 (SF-295 CNS) 1.74 µM | GI50 (MDA-MB-435) 1.73 µM | GI50 (SK-MEL-5 melanoma) 1.77 µM | GI50 (HS 578T breast) 2.15 µM | GI50 (OVCAR-8 ovarian) 2.51 µM | GI50 (RXF 393 renal) 1.67 µM
6.41 µM: TGI (OVCAR-8 ovarian)
3.24 µM: TGI (SF-295 CNS) | TGI (SK-MEL-5 melanoma)
6.56 µM: TGI (EKVX NSCLC)
3.11 µM: TGI (MDA-MB-435)
3.64 µM: TGI (NCI/ADR-RES ovarian)
3.06 µM: TGI (RXF 393 renal)

O=C(CN1CCN(c2ccccn2)CC1)N1CCCn2c1nc1ccccc1c2=O
> 100 µM: TGI (NCI-H226 lung) | TGI (EKVX NSCLC) | TGI (NCI/ADR-RES ovarian) | TGI (SF-295 CNS) | TGI (MDA-MB-435) | TGI (SK-MEL-5 melanoma) | TGI (HS 578T breast) | TGI (IGROV1 ovarian) | TGI (786-0 renal) | TGI (OVCAR-8 ovarian)

CCc1n[nH]c(=O)[nH]1
> 100 µM: TGI (EKVX NSCLC) | TGI (NCI/ADR-RES ovarian) | TGI (SF-295 CNS) | TGI (MDA-MB-435) | TGI (SK-MEL-5 melanoma) | TGI (HS 578T breast) | TGI (IGROV1 ovarian) | TGI (786-0 renal) | TGI (OVCAR-8 ovarian) | TGI (RXF 393 renal)

CSc1nc(-c2ccccc2)nc(=[N+]2CCOCC2)s1
> 100 µM: TGI (NCI-H226 lung) | TGI (EKVX NSCLC) | TGI (SK-MEL-5 melanoma) | TGI (IGROV1 ovarian) | TGI (786-0 renal) | TGI (OVCAR-8 ovarian) | TGI (RXF 393 renal)

Cc1ccc2c(c1)Nc1ccccc1P2(=O)O
> 100 µM: TGI (NCI-H226 lung) | TGI (EKVX NSCLC) | TGI (NCI/ADR-RES ovarian) | TGI (SF-295 CNS) | TGI (MDA-MB-435) | TGI (SK-MEL-5 melanoma) | TGI (IGROV1 ovarian) | TGI (786-0 renal) | TGI (OVCAR-8 ovarian) | TGI (RXF 393 renal)

CC(C)N1[C@@H]2CCCC[C@H]2N(C(C)C)[P+]1=O
> 100 µM: TGI (NCI-H226 lung) | TGI (EKVX NSCLC) | TGI (NCI/ADR-RES ovarian) | TGI (SF-295 CNS) | TGI (MDA-MB-435) | TGI (SK-MEL-5 melanoma) | TGI (HS 578T breast) | TGI (786-0 renal) | TGI (OVCAR-8 ovarian) | TGI (RXF 393 renal)

Cc1cc(OCC(O)CO)ccc1Cl (stereo unspecified)
> 100 µM: TGI (NCI-H226 lung) | TGI (EKVX NSCLC) | TGI (SF-295 CNS) | TGI (SK-MEL-5 melanoma) | TGI (IGROV1 ovarian) | TGI (OVCAR-8 ovarian) | TGI (RXF 393 renal)
